Legend:
Type in all cases: in vivo
[1] = system: Silverleaf Whitefly (Bemisia argentifolii); experiment: B.5 Silverleaf whitefly test on sprayed cotton plants; conditions: 72 h, in comparison with untreated controls, 3 days after treatment
Outline: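 Cotyledon-stage cotton plants were electrostatically sprayed with compound diluted from a 10,000 ppm cyclohexanone stock into 50% acetone/water with 0.01% nonionic surfactant. After drying, 10–12 adult whiteflies (3–5 days old) were released onto each plant. Mortality was scored after 3 days at 25 °C and 20–40% RH against untreated plants.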

[2] = system: Southern Armyworm (Spodoptera eridania); experiment: B.6 Southern armyworm test on sprayed lima bean plants; conditions: 96 h, 500 ppm, in comparison with untreated controls, 4 days after treatment
Outline: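 Lima bean plants at the 1st true leaf stage were sprayed with cyclohexanone-based solutions diluted in 50% acetone/water with 0.01% nonionic surfactant. Once dry, plants were bagged with 10–11 larvae and held at 25 °C and 20–40% RH. Mortality and reduced feeding were scored at 4 days against untreated plants.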

[3] = system: Rice brown plant hopper (Nilaparvata lugens); experiment: B.11 Rice brown plant hopper test on sprayed rice seedlings; conditions: in comparison with untreated controls, after 72 hours
Outline: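 Compounds formulated in 50:50 acetone:water with 0.1% vol/vol surfactant and sprayed onto potted rice seedlings. Air-dried plants were caged, infested with 10 adults and held at about 28-29 °C, 50-60% RH. Percent mortality scored after 72 hours.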

N#CC(C#N)(Cc1ccc(C(F)(F)F)nc1)c1cc(F)cc(F)c1 [II-34]
≥ 75%: mortality at 500 ppm [1] | mortality at 500 ppm [2] | mortality at 300 ppm [3]

— US10117430B2, “Malononitrile compounds for controlling animal pests” (BASF SE, priority 2012, dated 2018)
